This assay concerns the target wild-type human cardiac sodium channel, hNav1.5 (late sodium current) in HEK293 cells (Homo sapiens, UniProt Q14524). Nature of the assay: Late INa screening assay (automated whole-cell patch clamp, PatchXpress). The format is cell-based. Conditions: late INa generated with 10 μM Tefluthrin (or 50 nM ATX II), HEK293 hNav1.5; for inhibition at 1 µM: HEK293, compound at 1 μM, read-out: Late INa 1 μM (percent block of late INa). In outline: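 Percent block was derived from mean current 225–250 ms into a 250 ms depolarisation to −20 mV (holding −120 mV, every 10 s), normalised to the current left in Na-free solution. Whole-cell recordings came from HEK293 cells stably expressing α-subunit-only hNav1.5, at 24–27 °C. Late current was enhanced with 10 μM tefluthrin or 50 nM ATX II, then compound (typically 10 μM) was added three times over 7–8 min.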
For orientation: The patch-clamp technique gives a direct electrical read-out from membranes.

Molecules are shown by their SMILES.

Chain of wild-type human cardiac sodium channel, hNav1.5 (late sodium current) in HEK293 cells (Q14524 whole entry): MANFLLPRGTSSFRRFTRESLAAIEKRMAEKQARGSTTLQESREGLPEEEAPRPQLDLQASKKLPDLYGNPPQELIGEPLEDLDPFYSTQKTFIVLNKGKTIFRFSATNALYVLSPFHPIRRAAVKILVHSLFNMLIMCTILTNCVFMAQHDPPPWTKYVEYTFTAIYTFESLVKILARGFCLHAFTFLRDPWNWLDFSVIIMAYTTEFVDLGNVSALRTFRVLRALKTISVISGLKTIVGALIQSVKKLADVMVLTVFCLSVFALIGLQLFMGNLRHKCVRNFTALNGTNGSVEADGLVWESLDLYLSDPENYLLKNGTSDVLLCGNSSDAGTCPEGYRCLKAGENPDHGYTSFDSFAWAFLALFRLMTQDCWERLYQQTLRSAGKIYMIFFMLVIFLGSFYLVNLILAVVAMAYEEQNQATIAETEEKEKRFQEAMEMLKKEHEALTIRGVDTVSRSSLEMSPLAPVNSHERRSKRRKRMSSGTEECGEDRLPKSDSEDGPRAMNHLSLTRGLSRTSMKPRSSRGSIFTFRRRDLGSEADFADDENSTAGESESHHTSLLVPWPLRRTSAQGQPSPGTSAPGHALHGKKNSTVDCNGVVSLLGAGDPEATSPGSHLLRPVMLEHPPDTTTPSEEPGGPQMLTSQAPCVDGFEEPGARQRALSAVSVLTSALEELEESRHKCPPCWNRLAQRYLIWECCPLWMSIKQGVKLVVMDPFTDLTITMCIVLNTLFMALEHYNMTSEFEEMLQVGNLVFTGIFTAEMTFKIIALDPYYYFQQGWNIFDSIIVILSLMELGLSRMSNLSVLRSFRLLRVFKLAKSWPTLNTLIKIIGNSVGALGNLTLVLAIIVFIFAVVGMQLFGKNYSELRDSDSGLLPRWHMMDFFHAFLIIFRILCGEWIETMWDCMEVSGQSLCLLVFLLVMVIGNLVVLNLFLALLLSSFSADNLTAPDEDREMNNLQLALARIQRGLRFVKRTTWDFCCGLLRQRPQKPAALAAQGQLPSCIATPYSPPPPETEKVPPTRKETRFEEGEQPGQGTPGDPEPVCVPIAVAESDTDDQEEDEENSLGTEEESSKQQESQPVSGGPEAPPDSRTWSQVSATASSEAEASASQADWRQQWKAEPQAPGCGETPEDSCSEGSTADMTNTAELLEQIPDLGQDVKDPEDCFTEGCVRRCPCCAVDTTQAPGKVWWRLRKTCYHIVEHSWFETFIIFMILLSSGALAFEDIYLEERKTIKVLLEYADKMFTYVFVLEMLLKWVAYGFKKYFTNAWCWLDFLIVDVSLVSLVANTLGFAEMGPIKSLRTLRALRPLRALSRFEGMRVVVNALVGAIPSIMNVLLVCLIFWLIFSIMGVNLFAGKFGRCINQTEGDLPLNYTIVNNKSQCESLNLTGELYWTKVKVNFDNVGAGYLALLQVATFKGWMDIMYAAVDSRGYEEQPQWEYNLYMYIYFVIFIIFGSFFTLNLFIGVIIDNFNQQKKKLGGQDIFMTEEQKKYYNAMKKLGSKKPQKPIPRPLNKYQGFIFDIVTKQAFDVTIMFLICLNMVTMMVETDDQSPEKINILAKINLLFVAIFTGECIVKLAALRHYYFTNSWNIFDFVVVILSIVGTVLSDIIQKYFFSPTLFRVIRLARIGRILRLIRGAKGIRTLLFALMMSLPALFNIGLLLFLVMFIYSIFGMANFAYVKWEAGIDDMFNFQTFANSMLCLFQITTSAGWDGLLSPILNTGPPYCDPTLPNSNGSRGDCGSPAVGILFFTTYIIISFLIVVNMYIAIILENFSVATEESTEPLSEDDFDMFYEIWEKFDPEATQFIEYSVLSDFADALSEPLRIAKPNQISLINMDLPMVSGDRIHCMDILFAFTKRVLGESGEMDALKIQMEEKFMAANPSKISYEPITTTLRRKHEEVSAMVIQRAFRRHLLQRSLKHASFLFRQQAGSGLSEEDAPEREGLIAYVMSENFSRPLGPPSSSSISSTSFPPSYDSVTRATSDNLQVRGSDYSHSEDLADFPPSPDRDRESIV

In the case of `O=c1n(CCOc2nccc(-c3ccccc3)n2)nc2ccc(-c3ccc(OC(F)(F)F)cc3)cn12` [compound 115, 2-(2-(4-phenylpyrimidin-2-yloxy)ethyl)-6-(4-(trifluoromethoxy)phenyl)-[1,2,4]triazolo[4,3-a]pyridin-3(2H)-one], the inhibition at 1 µM is 22.9%. On the same count and under the same terms, the value for `COc1cnc(OCCn2nc3ccc(-c4ccc(OC(F)(F)F)cc4)cn3c2=O)nc1` [compound 116, 2-(2-(5-methoxypyrimidin-2-yloxy)ethyl)-6-(4-(trifluoromethoxy)phenyl)-[1,2,4]triazolo[4,3-a]pyridin-3(2H)-one] was 31.3%; that for `Cc1nccnc1CCn1nc2ccc(-c3ccc(OC(F)(F)F)cc3)cn2c1=O` [compound 117, 2-(2-(3-methylpyrazin-2-yl)ethyl)-6-(4-(trifluoromethoxy)phenyl)-[1,2,4]triazolo[4,3-a]pyridin-3(2H)-one] was 18.2%.

In the case of `COc1ccc(Br)c(CCn2nc3ccc(-c4ccc(OC(F)(F)F)cc4)cn3c2=O)n1` [compound 118, 2-(2-(3-bromo-6-methoxypyridin-2-yl)ethyl)-6-(4-(trifluoromethoxy)phenyl)-[1,2,4]triazolo[4,3-a]pyridin-3(2H)-one], the inhibition at 1 µM was found to be 47.9%. The same measure, in the same setting: the value for `O=c1n(CCCc2ccc(F)c(-c3ncco3)c2)nc2ccc(-c3ccc(OC(F)(F)F)cc3)cn12` [compound 119, 2-(3-(4-fluoro-3-(oxazol-2-yl)phenyl)propyl)-6-(4-(trifluoromethoxy)phenyl)-[1,2,4]triazolo[4,3-a]pyridin-3(2H)-one] was 22%.

With `O=c1n(CCOc2ncccn2)nc2ccc(-c3ccc(Oc4ccc(Cl)cc4)cc3)cn12` [compound 120, 6-(4-(4-chlorophenoxy)phenyl)-2-(2-(pyrimidin-2-yloxy)ethyl)-[1,2,4]triazolo[4,3-a]pyridin-3(2H)-one], the inhibition at 1 µM amounted to 73.9%. As for `O=c1n(CCCc2ccc(F)c(-c3cccnc3)c2)nc2ccc(-c3ccc(OC(F)(F)F)cc3)cn12` [compound 121, 2-(3-(4-fluoro-3-(pyridin-3-yl)phenyl)propyl)-6-(4-(trifluoromethoxy)phenyl)-[1,2,4]triazolo[4,3-a]pyridin-3(2H)-one], the inhibition at 1 µM was determined as 13.1%. On the same count and under the same terms, under `O=c1n(CCOc2ncccn2)nc2ccc(-c3ccc(Oc4ccc(F)cc4)cc3)cn12` [compound 122, 6-(4-(4-fluorophenoxy)phenyl)-2-(2-(pyrimidin-2-yloxy)ethyl)-[1,2,4]triazolo[4,3-a]pyridin-3(2H)-one] stands 58.5%; under `C[Si](C)(C)c1ccc(-c2ccc3nn(CCOc4ncccn4)c(=O)n3c2)cc1` [compound 123, 2-(2-(pyrimidin-2-yloxy)ethyl)-6-(4-(trimethylsilyl)phenyl)-[1,2,4]triazolo[4,3-a]pyridin-3(2H)-one], 38%; under `CCOC(COc1ccc2nc(C)sc2c1)Cn1nc2ccc(-c3ccc(OC(F)(F)F)cc3)cn2c1=O` (stereo not drawn) [compound 124, 2-(2-ethoxy-3-(2-methylbenzo[d]thiazol-6-yloxy)propyl)-6-(4-(trifluoromethoxy)phenyl)-[1,2,4]triazolo[4,3-a]pyridin-3(2H)-one], 31.2%.

On to `CCOc1ccnc(OC2COCC2n2nc3ccc(-c4ccc(OC(F)(F)F)cc4)cn3c2=O)n1` (stereo not drawn) [compound 125, 2-(4-(4-ethoxypyrimidin-2-yloxy)tetrahydrofuran-3-yl)-6-(4-(trifluoromethoxy)phenyl)-[1,2,4]triazolo[4,3-a]pyridin-3(2H)-one], for which the inhibition at 1 µM was 14.1%.

As for `CN(C)c1nc(OCCn2nc3ccc(-c4ccc(OC(F)(F)F)cc4)cn3c2=O)ncc1F` [compound 126, 2-(2-(4-(dimethylamino)-5-fluoropyrimidin-2-yloxy)ethyl)-6-(4-(trifluoromethoxy)phenyl)-[1,2,4]triazolo[4,3-a]pyridin-3(2H)-one], the inhibition at 1 µM is 32.6%. For the molecule `Cc1noc(Cn2nc3ccc(-c4cc(F)c(Oc5ccccc5)c(F)c4)cn3c2=O)n1` [compound 127, 6-(3,5-difluoro-4-phenoxyphenyl)-2-((3-methyl-1,2,4-oxadiazol-5-yl)methyl)-[1,2,4]triazolo[4,3-a]pyridin-3(2H)-one], the inhibition at 1 µM worked out at 21.5%.

In the case of `COCc1nc(Cn2nc3ccc(-c4ccc(OC(F)(F)F)cc4)cn3c2=O)no1` [compound 128, 2-((5-(methoxymethyl)-1,2,4-oxadiazol-3-yl)methyl)-6-(4-(trifluoromethoxy)phenyl)-[1,2,4]triazolo[4,3-a]pyridin-3(2H)-one], the inhibition at 1 µM was 22%.

As to `N#Cc1ccnc(OCCn2nc3ccc(-c4ccc(OC(F)(F)F)cc4)cn3c2=O)n1` [compound 129], the “Late INa 1 μM (percent block of late INa)” value (compound at 1 μM) was found to be 16.1133%.

Turning to `COc1nc(OCCn2nc3ccc(-c4ccc(OC(F)(F)F)cc4)cn3c2=O)ncc1Cl` [compound 130, 2-(2-(5-chloro-4-methoxypyrimidin-2-yloxy)ethyl)-6-(4-(trifluoromethoxy)phenyl)-[1,2,4]triazolo[4,3-a]pyridin-3(2H)-one], the inhibition at 1 µM turned out to be 32.4%.

For `Cc1noc(Cn2nc3ccc(-c4ccc(C(=O)c5ccccc5)cc4)cn3c2=O)n1` [compound 131, 6-(4-benzoylphenyl)-2-((3-methyl-1,2,4-oxadiazol-5-yl)methyl)-[1,2,4]triazolo[4,3-a]pyridin-3(2H)-one], the inhibition at 1 µM amounted to 34.7%.

Turning to `O=c1n(CCOc2nccc(Oc3ccc(Cl)cc3)n2)nc2ccc(-c3ccc(OC(F)(F)F)cc3)cn12` [compound 132, 2-(2-(4-(4-chlorophenoxy)pyrimidin-2-yloxy)ethyl)-6-(4-(trifluoromethoxy)phenyl)-[1,2,4]triazolo[4,3-a]pyridin-3(2H)-one], the inhibition at 1 µM stood at 11%.

On to `O=c1n(CCOc2ncc(F)c(N3CC(F)(F)C3)n2)nc2ccc(-c3ccc(OC(F)(F)F)cc3)cn12` [compound 133, 2-(2-(4-(3,3-difluoroazetidin-1-yl)-5-fluoropyrimidin-2-yloxy)ethyl)-6-(4-(trifluoromethoxy)phenyl)-[1,2,4]triazolo[4,3-a]pyridin-3(2H)-one], for which the inhibition at 1 µM is 20.5%.

On to `Cc1noc(Cn2nc3ccc(-c4ccc(Cl)c(Cl)c4)cn3c2=O)n1` [compound 134, 6-(3,4-dichlorophenyl)-2-((3-methyl-1,2,4-oxadiazol-5-yl)methyl)-[1,2,4]triazolo[4,3-a]pyridin-3(2H)-one], for which the inhibition at 1 µM came to 15.5%. The same measure, in the same setting: the value for `O=c1n(CCOc2nccn3cccc23)nc2ccc(-c3ccc(OC(F)(F)F)cc3)cn12` [compound 135, 2-(2-(pyrrolo[1,2-a]pyrazin-1-yloxy)ethyl)-6-(4-(trifluoromethoxy)phenyl)-[1,2,4]triazolo[4,3-a]pyridin-3(2H)-one] was 41.5%. The same measure, in the same setting: the value for `O=C1c2ccccc2C(=O)N1Cc1nc(Cn2nc3ccc(-c4ccc(OC(F)(F)F)cc4)cn3c2=O)no1` [compound 136, 2-((3-((3-oxo-6-(4-(trifluoromethoxy)phenyl)-[1,2,4]triazolo[4,3-a]pyridin-2(3H)-yl)methyl)-1,2,4-oxadiazol-5-yl)methyl)isoindoline-1,3-dione] was 25.2%; that for `Cc1noc(Cn2nc3ccc(-c4ccc(C(F)(F)F)cc4)cn3c2=O)n1` [compound 137, 2-((3-methyl-1,2,4-oxadiazol-5-yl)methyl)-6-(4-(trifluoromethyl)phenyl)-[1,2,4]triazolo[4,3-a]pyridin-3(2H)-one] was 28.8%. On the same count and under the same terms, the value for `O=c1n(CCOc2ncc(F)cn2)nc2ccc(-c3ccc(OC(F)(F)F)cc3)cn12` [compound 138, 2-(2-(5-fluoropyrimidin-2-yloxy)ethyl)-6-(4-(trifluoromethoxy)phenyl)-[1,2,4]triazolo[4,3-a]pyridin-3(2H)-one] was 32.4%. Consider `O=c1n(CCOc2cnc(Cl)nc2)nc2ccc(-c3ccc(OC(F)(F)F)cc3)cn12` [compound 139, 2-(2-(2-chloropyrimidin-5-yloxy)ethyl)-6-(4-(trifluoromethoxy)phenyl)-[1,2,4]triazolo[4,3-a]pyridin-3(2H)-one], for which the inhibition at 1 µM is 20.2%.

Consider `Cc1nc(Cn2nc3ccc(-c4ccc(Oc5ccc(F)cc5)cc4)cn3c2=O)no1` [compound 140, 6-(4-(4-fluorophenoxy)phenyl)-2-((5-methyl-1,2,4-oxadiazol-3-yl)methyl)-[1,2,4]triazolo[4,3-a]pyridin-3(2H)-one], for which the inhibition at 1 µM is 60.6%.

In the case of `O=c1n(CCOc2nccc3ccccc23)nc2ccc(-c3ccc(OC(F)(F)F)cc3)cn12` [compound 141, 2-(2-(isoquinolin-1-yloxy)ethyl)-6-(4-(trifluoromethoxy)phenyl)-[1,2,4]triazolo[4,3-a]pyridin-3(2H)-one], the inhibition at 1 µM amounted to 29.9%. The same measure, in the same setting: under `O=c1n(Cc2noc(C3CC3)n2)nc2ccc(-c3ccc(OC(F)(F)F)cc3)cn12` [compound 142, 2-((5-cyclopropyl-1,2,4-oxadiazol-3-yl)methyl)-6-(4-(trifluoromethoxy)phenyl)-[1,2,4]triazolo[4,3-a]pyridin-3(2H)-one] stands 20%; under `O=c1[nH]nc2ccc(-c3ccc(Oc4ccc(F)cc4)cc3)cn12` [compound 143, 6-(4-(4-fluorophenoxy)phenyl)-[1,2,4]triazolo[4,3-a]pyridin-3(2H)-one], 56.6%. Still for that read-out and setting: under `O=c1n(Cc2cc(-c3ccccn3)on2)nc2ccc(-c3ccc(OC(F)(F)F)cc3)cn12` [compound 144, 2-((5-(pyridin-2-yl)isoxazol-3-yl)methyl)-6-(4-(trifluoromethoxy)phenyl)-[1,2,4]triazolo[4,3-a]pyridin-3(2H)-one] stands 19.2%.

Values taken from patent publication US9079901B2, “Fused heterocyclic compounds as ion channel modulators” (Gilead Sciences, Inc., priority 2010, dated 2015).
